Here are results for 3 compounds from US20100029706A1, “HYDROGENATED PYRIDO[4,3-b]INDOLES FOR THE TREATMENT OF OXIDATIVE STRESS” (Edison Parmaceuticals, Inc. a Delaware Corporation, priority 2008, published 2010).

Read-outs that look alike come from different tables or passages of the source.

Common to all, as to assay type: cell-based
Experiment [1] concerns Human dermal fibroblasts from Friedreich's Ataxia patients. As to the kind of experiment: Rescue of BSO-stressed FRDA fibroblasts (Calcein AM viability). To be noted: FRDA fibroblasts GM04078, BSO-stressed, read-out: EC50, protection against Friedreich's ataxia. The protocol: (§1) An initial screen was performed to identify compounds effective for the amelioration of redox disorders. Test samples, 4 reference compounds (Idebenone, decylubiquinone, Trolox and α-tocopherol acetate), and solvent controls were tested for their ability to rescue FRDA fibroblasts stressed by addition of L-buthionine-(S,R)-sulfoximine (BSO), as described in Jauslin et al., Hum. Mol. Genet. 11(24):3055 (2002), Jauslin et al., FASEB J. 17:1972-4 (2003), and International Patent Application WO 2004/003565. […] This specific BSO-mediated cell death can be prevented by administration of antioxidants or molecules involved in the antioxidant pathway, such as α-tocopherol, selenium, or small molecule glutathione peroxidase mimetics. However, antioxidants differ in their potency, i.e. the concentration at which they are able to rescue BSO-stressed FRDA fibroblasts.
MEM (a medium enriched in amino acids and vitamins, catalog no. 1-31F24-I) and Medium 199 (M199, catalog no. 1-21F22-I) with Earle's Balanced Salts, without phenol red, were purchased from Bioconcept. Fetal Calf Serum was obtained from PAA Laboratories. Basic fibroblast growth factor and epidermal growth factor were purchased from PeproTech. Penicillin-streptomycin-glutamine mix, L-buthionine (S,R)-sulfoximine, (+)-α-tocopherol acetate, decylubiquinone, and insulin from bovine pancreas were purchased from Sigma. Trolox (6-hydroxy-2,5,7,8-tetramethylchromane-2-carboxylic acid) was obtained from Fluka. Idebenone was obtained from Chemo Iberica. Calcein AM was purchased from Molecular Probes. Cell culture medium was made by combining 125 ml M199 EBS, 50 ml Fetal Calf Serum, 100 U/ml penicillin, 100 μg/ml streptomycin, 2 mM glutamine, 10 μg/ml insulin, 10 ng/ml EGF, and 10 ng/ml bFGF; MEM EBS was added to make the volume up to 500 ml. A 10 mM BSO solution was prepared by dissolving 444 mg BSO in 200 ml of medium with subsequent filter-sterilization. During the course of the experiments, this solution was stored at +4° C. […]

Experiment [2] has as its system human dermal fibroblasts from CoQ10 deficient patients harboring a CoQ2 mutation. Put plainly: Rescue of fibroblasts from CoQ10 deficient patients from oxidative stress (similar to Example A). To be noted: BSO-stressed, read-out: EC50, protection against CoQ10. The method, then:
[Worded in the source for another cell line; this cell line is reported under the same test.] as §1
Test samples were screened according to the following protocol: • A culture with FRDA fibroblasts was started from a 1 ml vial with approximately 500,000 cells stored in liquid nitrogen. Cells were propagated in 10 cm cell culture dishes by splitting every third day in a ratio of 1:3 until nine plates were available. Once confluent, fibroblasts were harvested. For 54 micro titer plates (96 well-MTP) a total of 14.3 million cells (passage eight) were re-suspended in 480 ml medium, corresponding to 100 μl medium with 3,000 cells/well. The remaining cells were distributed in 10 cm cell culture plates (500,000 cells/plate) for propagation. The plates were incubated overnight at 37° C. in an atmosphere with 95% humidity and 5% CO2 to allow attachment of the cells to the culture plate.
MTP medium (243 μl) was added to a well of the microtiter plate. […]
(§2) 100 μl of PBS containing 1.2 μM Calcein AM were then added to each well. […] After that time the PBS was discarded, the plate gently tapped on a paper towel and fluorescence (excitation/emission wavelengths of 485 nm and 525 nm, respectively) was read on a Gemini fluorescence reader. […]

Experiment [3] concerns human dermal fibroblasts from Parkinson's Disease patients. As to the kind of experiment: Rescue of fibroblasts from Parkinson's Disease patients from oxidative stress (similar to Example A). The following applies: PD fibroblasts AG20439, BSO-stressed, read-out: EC50, protection against Parkinson's. The protocol:
[Worded in the source for another cell line; this cell line is reported under the same test.] as §1
(§3) Test samples were screened according to the following protocol: • A culture with FRDA fibroblasts was started from a 1 ml vial with approximately 500,000 cells stored in liquid nitrogen. […]
as §2

The test system of experiment [4] is human dermal fibroblasts from LHON patients. As to the kind of experiment: Rescue of fibroblasts from LHON patients from oxidative stress (as Example A). To be noted: Fibroblast, LHON fibroblasts GM03858, BSO-stressed, read-out: EC50, protection against LHON. The protocol:
[Worded in the source for another cell line; this cell line is reported under the same test.] as §1, §3, §2

What is called EC50 is the midpoint of the concentration-response curve. For `Cc1ccc2c(c1)c1c(n2CCc2ccc(C)nc2)CCN(C)C1` [dimebolin, 2,8-dimethyl-5-(2-(6-methylpyridin-3-yl)ethyl)-2,3,4,5-tetrahydro-1H-pyrido[4,3-b]indole], the EC50 in experiment [1] (Homo sapiens) was 1.9 µM; in experiment [2] (Homo sapiens, Fibroblast), 0.23 µM.
With `Cc1ccc2c(c1)C1CNCCC1N2` (stereo not drawn) [8-methyl-1,3,4,4a,5,9b-tetrahydro-1H-pyrido[4,3-b]indole], the EC50 in experiment [1] was 4.1 µM; in experiment [2], 7 µM; in experiment [3], 3.68 µM.
`CN1CCc2c(c3ccccc3n2Cc2ccccc2)C1` [5-benzyl-2-methyl-2,3,4,5-tetrahydro-1H-pyrido[4,3-b]indole]: the EC50 in experiment [1] (Homo sapiens) is 4.26 µM; in experiment [4] it was 1.2 µM; in experiment [2] (Homo sapiens, Fibroblast) it was 3.35 µM; in experiment [3] (Homo sapiens, Fibroblast), 0.93 µM.
